One molecule from patent US20100086623A1, “Chemical Combination for the Generation of Disinfectant and Heat” (priority 2004, published 2010) can be followed below.

Where only a bound is given, the exact number is not on record here.

The assay has as its system Staphylococcus aureus. Kind of assay: Destruction of S. aureus cultures by aqueous chlorine dioxide solutions (plate counts). Format: cell-based. How it is done:
In this test, S. aureus cells were suspended in Butterfield's phosphate buffer diluent with a pH of 7.2. The density of each of these robust collections of S. aureus suspensions was approximately 10^7 colony-forming-units per mL (10^7 CFU/mL). […] Cell counts were made on samples recovered on Baird-Parker Agar with EY-Tellurite and incubated at 35° C. for 48 hours. […] In these test results, S. aureus survival was detected only at the most dilute chlorine dioxide solutions (0.044 ppm). […] This observation is consistent with lethality of chemical agents for destroying microorganisms being the mathematical product of the concentration of the lethal agent (C) and the time (t) of exposure, (C×t).

For the molecule `[O][Cl+][O-]` [chlorine dioxide], the “inactivation of the pathogens” value (0.044 ppm chlorine dioxide solution, exposure 24 hours) stood at 100%. Further, under “[ClO2] 0.044 ppm, 30° C., 3-5 min exposure”, the survivors was 3.4% survivors. Further, the “CFU/mL × 10^−6” value runs as follows: ([ClO2] 0.044 ppm, 30° C., 3-5 min exposure, control 3.4) 0.116 CFU/mL × 10^−6; ([ClO2] 0.044 ppm, exposure for 24 h) 0.00 CFU/mL × 10^−6; ([ClO2] 0.044 ppm, exposure over night) <1.0 × 10^−4 CFU/mL × 10^−6; ([ClO2] 0.44 ppm, 30° C., 3-5 min exposure, control 9.55) 0 CFU/mL × 10^−6; ([ClO2] 4.4 ppm, 30° C., 3-5 min exposure, control 3.4) 0.00 CFU/mL × 10^−6; ([ClO2] 44 ppm, 30° C., 3-5 min exposure, control 9.55) 0.00 CFU/mL × 10^−6.
